How the values were obtained:
Format in all cases: cell-based, mouse
[1] = tested on: β-galactosidase in CMV-LacZ C2C12 myoblasts; assay: CMV-LacZ secondary screen in C2C12 myoblasts (β-Gal stabilizing assay); settings: for CMV-LACZ in Myoblasts (β-galactosidase activity relative to DMSO): CMV-LacZ C2C12 myoblasts; for CMV-LACZ in Myoblasts, value relative to DMSO: SU9516 analogs, C2C12 CMV-LacZ, N=2
In short: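 A secondary screen identifies compounds that stabilize β-gal independently of the native promoter, using CMV-LacZ C2C12 cells. Curves span 0.5–40 μM at six levels, in duplicate.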

[2] = tested on: β-galactosidase in CMV-LacZ C2C12 myotubes; assay: CMV-LacZ secondary screen in C2C12 myotubes (β-Gal stabilizing assay); settings: for CMV-LACZ in Myotubes, signal relative to DMSO: C2C12 CMV-LacZ myotubes, fold relative to DMSO; for CMV-LACZ in Myotubes, value relative to DMSO: SU9516 analogs, C2C12 CMV-LacZ, N=2
In short: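 β-gal stabilization was measured in C2C12 myoblasts or myotubes stably transfected with a CMV-driven LacZ construct, using the FDG β-gal assay. Compounds were tested in dose-response at 0.5, 1, 5, 10, 20 and 40 μM, with two replicates per point.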

[3] = tested on: α7 integrin (LacZ reporter in α7βgal+/− myoblasts); assay: Myoblast α7+/LacZ integrin FDG assay (Burkin assay in myoblasts, 96-well); settings: 96-well; for Burkin Assay in Myoblasts, signal relative to DMSO: α7+/LacZ myoblasts; for Burkin Assay in Myoblasts, value relative to DMSO: SU9516 analogs, N=3-6
[4] = tested on: α7 integrin (LacZ reporter in α7+/LacZ myotubes); assay: Myotube α7 integrin FDG assay (Burkin assay in myotubes, 96-well); settings: for Burkin Assay in Myotubes, value relative to DMSO: SU9516 analogs, 96-well, N=3-6

OC(c1nc2ccc(F)cc2[nH]1)C(O)c1nc2ccc(F)cc2[nH]1 (stereo not drawn) [MLS001182368-01]
CMV-LACZ in Myoblasts (β-galactosidase activity relative to DMSO) ([1]; 0.5 uM): 0.9571
CMV-LACZ in Myoblasts (β-galactosidase activity relative to DMSO) ([1]; 1 uM): 0.8783
CMV-LACZ in Myoblasts (β-galactosidase activity relative to DMSO) ([1]; 5 uM): 1.0528
CMV-LACZ in Myoblasts (β-galactosidase activity relative to DMSO) ([1]; 10 uM): 0.9225
CMV-LACZ in Myoblasts (β-galactosidase activity relative to DMSO) ([1]; 20 uM): 1.2322
CMV-LACZ in Myoblasts (β-galactosidase activity relative to DMSO) ([1]; 40 uM): 1.1615
CMV-LACZ in Myotubes, signal relative to DMSO ([2]; 0.5 uM): 0.8667
CMV-LACZ in Myotubes, signal relative to DMSO ([2]; 1 uM): 1.0619
CMV-LACZ in Myotubes, signal relative to DMSO ([2]; 5 uM): 0.8931
CMV-LACZ in Myotubes, signal relative to DMSO ([2]; 10 uM): 0.8690
CMV-LACZ in Myotubes, signal relative to DMSO ([2]; 20 uM): 0.9953
CMV-LACZ in Myotubes, signal relative to DMSO ([2]; 40 uM): 1.0318
Burkin Assay in Myoblasts, signal relative to DMSO ([3]; 0.5 uM): 1.081
Burkin Assay in Myoblasts, signal relative to DMSO ([3]; 1 uM): 1.215
Burkin Assay in Myoblasts, signal relative to DMSO ([3]; 5 uM): 0.914
Burkin Assay in Myoblasts, signal relative to DMSO ([3]; 10 uM): 0.8945
Burkin Assay in Myoblasts, signal relative to DMSO ([3]; 20 uM): 1.001
Burkin Assay in Myoblasts, signal relative to DMSO ([3]; 40 uM): 0.8952
Burkin Assay in Myotubes, α7 integrin LacZ reporter signal relative to DMSO ([4]; 0.5 uM): 1.044
Burkin Assay in Myotubes, α7 integrin LacZ reporter signal relative to DMSO ([4]; 1 uM): 1.0792
Burkin Assay in Myotubes, α7 integrin LacZ reporter signal relative to DMSO ([4]; 5 uM): 1.2117
Burkin Assay in Myotubes, α7 integrin LacZ reporter signal relative to DMSO ([4]; 10 uM): 1.02
Burkin Assay in Myotubes, α7 integrin LacZ reporter signal relative to DMSO ([4]; 20 uM): 0.9097
Burkin Assay in Myotubes, α7 integrin LacZ reporter signal relative to DMSO ([4]; 40 uM): 0.9193

CN1CCN(c2ccccc2/C=C2/C(=O)Nc3ccccc32)CC1 [MLS001182377-01]
CMV-LACZ in Myoblasts, value relative to DMSO ([1]; 0.5 uM): 1.1229
CMV-LACZ in Myoblasts, value relative to DMSO ([1]; 1 uM): 1.1646
CMV-LACZ in Myoblasts, value relative to DMSO ([1]; 5 uM): 0.9113
CMV-LACZ in Myoblasts, value relative to DMSO ([1]; 10 uM): 0.9294
CMV-LACZ in Myoblasts, value relative to DMSO ([1]; 20 uM): 0.4441
CMV-LACZ in Myoblasts, value relative to DMSO ([1]; 40 uM): 0.4170
CMV-LACZ in Myotubes, value relative to DMSO ([2]; 0.5 uM): 0.7762
CMV-LACZ in Myotubes, value relative to DMSO ([2]; 1 uM): 0.8105
CMV-LACZ in Myotubes, value relative to DMSO ([2]; 5 uM): 0.9608
CMV-LACZ in Myotubes, value relative to DMSO ([2]; 10 uM): 1.0589
CMV-LACZ in Myotubes, value relative to DMSO ([2]; 20 uM): 1.0305
CMV-LACZ in Myotubes, value relative to DMSO ([2]; 40 uM): 1.0263
Burkin Assay in Myoblasts, value relative to DMSO ([3]; 0.5 uM): 1.179
Burkin Assay in Myoblasts, value relative to DMSO ([3]; 1 uM): 1.045
Burkin Assay in Myoblasts, value relative to DMSO ([3]; 5 uM): 0.915
Burkin Assay in Myoblasts, value relative to DMSO ([3]; 10 uM): 0.9061
Burkin Assay in Myoblasts, value relative to DMSO ([3]; 20 uM): 0.8744
Burkin Assay in Myoblasts, value relative to DMSO ([3]; 40 uM): 0.6176
Burkin Assay in Myotubes, value relative to DMSO ([4]; 0.5 uM): 1.015
Burkin Assay in Myotubes, value relative to DMSO ([4]; 1 uM): 1.021
Burkin Assay in Myotubes, value relative to DMSO ([4]; 5 uM): 0.9372
Burkin Assay in Myotubes, value relative to DMSO ([4]; 10 uM): 0.9389
Burkin Assay in Myotubes, value relative to DMSO ([4]; 20 uM): 0.8654
Burkin Assay in Myotubes, value relative to DMSO ([4]; 40 uM): 0.9149

COc1cc([N+](=O)[O-])cc(/C=N/NC(=O)C(O)(c2ccccc2)c2ccccc2)c1O [MLS001183575-01]
CMV-LACZ in Myoblasts (β-galactosidase activity relative to DMSO) ([1]; 0.5 uM): 1.1603
CMV-LACZ in Myoblasts (β-galactosidase activity relative to DMSO) ([1]; 1 uM): 1.2440
CMV-LACZ in Myoblasts (β-galactosidase activity relative to DMSO) ([1]; 5 uM): 0.8972
CMV-LACZ in Myoblasts (β-galactosidase activity relative to DMSO) ([1]; 10 uM): 0.7762
CMV-LACZ in Myoblasts (β-galactosidase activity relative to DMSO) ([1]; 20 uM): 1.2825
CMV-LACZ in Myoblasts (β-galactosidase activity relative to DMSO) ([1]; 40 uM): 0.8856
CMV-LACZ in Myotubes, signal relative to DMSO ([2]; 0.5 uM): 0.9648
CMV-LACZ in Myotubes, signal relative to DMSO ([2]; 1 uM): 0.8657
CMV-LACZ in Myotubes, signal relative to DMSO ([2]; 5 uM): 0.7726
CMV-LACZ in Myotubes, signal relative to DMSO ([2]; 10 uM): 0.9136
CMV-LACZ in Myotubes, signal relative to DMSO ([2]; 20 uM): 0.8230
CMV-LACZ in Myotubes, signal relative to DMSO ([2]; 40 uM): 1.1230
Burkin Assay in Myoblasts, signal relative to DMSO ([3]; 0.5 uM): 0.9644
Burkin Assay in Myoblasts, signal relative to DMSO ([3]; 1 uM): 1.009
Burkin Assay in Myoblasts, signal relative to DMSO ([3]; 5 uM): 0.8981
Burkin Assay in Myoblasts, signal relative to DMSO ([3]; 10 uM): 0.7946
Burkin Assay in Myoblasts, signal relative to DMSO ([3]; 20 uM): 0.6916
Burkin Assay in Myoblasts, signal relative to DMSO ([3]; 40 uM): 0.5338
Burkin Assay in Myotubes, α7 integrin LacZ reporter signal relative to DMSO ([4]; 0.5 uM): 1.0887
Burkin Assay in Myotubes, α7 integrin LacZ reporter signal relative to DMSO ([4]; 1 uM): 0.9681
Burkin Assay in Myotubes, α7 integrin LacZ reporter signal relative to DMSO ([4]; 5 uM): 0.8172
Burkin Assay in Myotubes, α7 integrin LacZ reporter signal relative to DMSO ([4]; 10 uM): 0.7938
Burkin Assay in Myotubes, α7 integrin LacZ reporter signal relative to DMSO ([4]; 20 uM): 0.7378
Burkin Assay in Myotubes, α7 integrin LacZ reporter signal relative to DMSO ([4]; 40 uM): 0.6868
